# Assays:
# [1] = Antagonist activity at integrin alpha2b beta3 receptor in citrated human platelet-rich plasma assessed as inhibition of ADP-induced platelets aggregation preincubated for 15 mins followed by ADP addition measured for 8 mins by aggregometric analysis
# [2] = Inhibition of alpha5 beta1 integrin (unknown origin) by cell migration assay
# [3] = Inhibition of alpha5 beta1 integrin (unknown origin) by cell proliferation assay
# [4] = Antagonist activity at integrin alpha2b beta3 receptor in citrated human platelet-rich plasma assessed as inhibition of ADP-induced platelet aggregation
structure (smiles),measurement,setting,value
CCc1nn2c(=O)cc(N3CCNCC3)nc2s1,IC50,[1],9.7 µM
O=c1c(C2NCCc3c2[nH]c2ccccc32)c(O)[nH]c(=S)n1Cc1ccc(F)cc1 (centres undefined),IC50,[2],15.5 µM
same,IC50,[3],20.5 µM
N=C(N)c1ccc2cc(OC(=O)c3ccc(N=C(N)N)cc3)ccc2c1 [4-Guanidino-benzoic acid 6-carbamimidoyl-naphthalen-2-yl ester(FUT-175)],IC50,[4],12 µM
